# In patent publication US11186541B2, “Potent inhibitors of aspartate N-acetyl-transferase for the treatment of Canavan disease” (The University of Toledo, priority 2016, dated 2021):
# Biological target: T1, Recombinant maltose-binding protein-human aspartate N-acetyltransferase (MBP-ANAT) fusion enzyme (Homo sapiens, UniProt Q8N9F0)
# T1 construct: His tag (C); made in house; host or cells: E. coli NiCo21(DE3)
# T1 sequence (Q8N9F0 1-302): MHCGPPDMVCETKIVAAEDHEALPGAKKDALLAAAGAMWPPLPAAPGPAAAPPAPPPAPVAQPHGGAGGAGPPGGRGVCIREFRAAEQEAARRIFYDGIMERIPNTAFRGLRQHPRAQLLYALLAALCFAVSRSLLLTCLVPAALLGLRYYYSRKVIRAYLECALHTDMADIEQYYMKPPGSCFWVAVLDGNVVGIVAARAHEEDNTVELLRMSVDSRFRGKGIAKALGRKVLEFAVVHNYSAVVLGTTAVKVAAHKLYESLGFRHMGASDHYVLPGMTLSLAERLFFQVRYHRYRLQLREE
# Assay: ANAT activity, DTNB-based assay (inhibitor screening and kinetic evaluation)
# Format: biochemical
# Conditions: not given
# Text: ANAT is difficult to purify. […] This can be accomplished, for example, as described in U.S. Provisional Patent Application No. 62/216,700, which is incorporated herein by reference for all purposes. […] An optimized thiol detection assay can be used to kinetically characterize this newly produced enzyme form.
# Recombinant maltose-binding protein-human aspartate N-acetyltransferase (MBP-ANAT) fusion enzyme was expressed and purified as described in U.S. Provisional Patent Application No. 62/216,700. Briefly, NiCo21(DE3) competent E. coli cells (New England Biolabs, Ipswich, Mass.) were transformed with an MBP-ANAT-his construct and selected on LB plates with 30 μg/ml kanamycin. Colonies from these plates were used to inoculate starter cultures in LB media. After diluting each starter culture by 100-fold in 1 L of LB media, cell growth was continued for about 2 hours at 37° C. until A600 reached 0.6. IPTG was then added to a final concentration of 0.5 mM, and protein expression was induced at 16° C. for 20 hours. To purify MBP-ANAT, a Ni Sepharose 6 Fast Flow column (GE healthcare, Pittsburgh, Pa.) was equilibrated with Buffer A (20 mM potassium phosphate, pH 7.4, 300 mM sodium chloride, 10% glycerol, and 20 mM imidazole). Cell lysate was loaded on to the column and partially purified ANAT was then eluted with a linear gradient of Buffer B (buffer A containing 400 mM imidazole). The active fractions were pooled and loaded onto an amylose column and highly purified ANAT fusion was then obtained by elution with a 0-10 mM linear maltose gradient. ANAT activity was measured by an established DTNB-based assay using a SpectraMax 190 spectrophotometer plate reader (Molecular Devices, Calif.). A typical activity assay contained 20 mM HEPES, pH 7.4, 150 mM NaCl, 5% glycerol, 40 μM DTNB, 40 μM acetyl-CoA, and 2 mM L-aspartate in a total volume of 200 μl. Reaction was monitored at 412 nm (ε=14.15 mM^−1 cm^−1) for at least 15 minutes.
# Three different compound libraries were used for initial screening of ANAT inhibitors. These small compound libraries were assembled in-house: an amino acids library contained 96 compounds, a metabolite library contained 96 compounds, and a second amino acids library contained 64 compounds. An additional constrained analogs library contained 77 compounds that were purchased from commercial sources.
row,SMILES,ANAT inhibitor potency (in words)
1,NC(=O)[C@@H](N)CC(=O)O [L-aspartic acid amide],neither alternative substrates nor inhibitors
2,O=C(O)C[C@H](NC(=O)OCc1ccccc1)C(=O)O [N-[(benzyloxy)carbonyl]-L-aspartic acid],surprisingly high potency

# Same assay, conditions: read-out: inhibition constant against ANAT
row,Ki [µM],SMILES
1,> 2000,O=C1CC[C@H](C(=O)O)N1 [2-D-pyroglutamic acid]
2,> 2000,O=C(O)c1cc(-c2ccccc2F)no1 [3-(2-fluoro-phenyl)-isoxazole-5-carboxylic acid]
3,> 2000,"Cc1noc(-c2cccc(C(=O)O)c2)n1 [3-(3-methyl-1,2,4-oxadiazol-5-yl-benzoic acid]"
4,130,O=C(O)CC[C@H](NC(=O)c1ccccc1)C(=O)O [N-benzoyl-L-glutamate]
5,> 2000,"O=C(O)C[C@H](NC(=O)c1ccccc1)C(=O)O [comparable L-aspartate derivative, sodium N-benzoyl-L-aspartate]"
